# Experimental data reported in US20240110915A1, “METHODS, PRODUCTS AND SYSTEMS FOR PROGNOSIS OF SUBJECTS SUFFERING FROM MULTIPLE MYELOMA” (University of South Australia, priority 2020, published 2024).
# Assays:
# DSG2 = DSG2 protein knockdown in KMS-11 cells by Western blot; format: cell-based, human; conditions: stable shRNA expression
# From the text: Lentiviral vectors (pGIPZ) expressing DSG2-shRNA and non-silencing control-shRNA were obtained from Open Biosystem (Dharmacon). The following shRNA sequences were cloned into the pGIPZ expression plasmid: 5′-TGGATGTCAATGACAATAT-3′ (DSG2-shRNA60) (SEQ ID NO. 2); 5′-CCAGTGTTCTACCTAAATA-3′ (DSG2-shRNA62) (SEQ ID NO. 3); and
# 5′-[…]-3′ (non-silencing shRNA) (SEQ ID NO. 4). Replication incompetent lentiviral particles were generated by transiently co-transfecting HEK293T cells with ViraPower Lentiviral Support Kit (Invitrogen) and pGIPZ-shRNA vectors using Lipofectamine 2000 (Invitrogen). […]
# KMS-11 cells cultured on 100 mm Petri dishes were washed twice with ice-cold PBS and solubilized in RIPA lysis buffer (150 mM NaCl, 50 mM Tris-HCl, pH 7.5, 1% Triton X-100, 1% deoxycholate, 0.1% SDS, and 2 mM EDTA) containing both protease (cOmplete™, Roche) and phosphatase inhibitors (PhosStop™, Roche) for 10 min on ice. The lysates were clarified by centrifugation at 13,000×g for 10 min at 4° C., and protein concentrations determined using the bicinchoninic acid protein assay kit (Pierce). […] After washing, immunoreactivity was detected by using the Odyssey infrared imager (Li-COR). […] Band intensities were quantitated by densitometry using the software associated with the Odyssey infrared imager (Li-COR).
# [1] = test system: KMS-11 cells with stable knockdown of DSG2 (DSG2 shRNA); assay: Cell viability by AnnexinV staining, cells with stable DSG2 knockdown; format: cell-based, human; conditions: over 12 hours at 2 nM and 4 nM; compared with cells without knockdown
# From the text: (§1) Lentiviral vectors (pGIPZ) expressing DSG2-shRNA and non-silencing control-shRNA were obtained from Open Biosystem (Dharmacon) and cloned into the pGIPZ expression plasmid: 5′-TGGATGTCAATGACAATAT-3′ (SEQ ID NO: 2; DSG2-shRNA60); 5′-CCAGTGTTCTACCTAAATA-3′ (SEQ ID NO:3; DSG2-shRNA62); and 5′-[…]-3′ (SEQ ID NO: 4; non-silencing shRNA). Replication incompetent lentiviral particles were generated by transiently co-transfecting HEK293T cells with ViraPower Lentiviral Support Kit (Invitrogen) and pGIPZ-shRNA vectors using Lipofectamine 2000 (Invitrogen). Lentiviral supernatant was harvested 72 hours post-transfection and used to transduce 1×10^5 KMS-11 cells that were seeded in a 6-well plate, in the presence of 4 μg/mL polybrene. Puromycin (1 μg/mL) was continually added to maintain culture of cells with the transduced vectors and DSG2 expression was routinely checked using flow cytometry and western blot. Cell without and with DSG2 KD were cultured with increasing concentrations of Bortezomib (2-4 nM, (Janssen Cilag, New Brunswick NJ)) and after 12 hours the cell viability was determined using AnnexinV staining using flow cytometric analysis.
# [2] = test system: KMS-11 human multiple myeloma cells; assay: Cell viability by AnnexinV staining, flow cytometric analysis; format: cell-based; conditions: overnight exposure, 4 nM
# From the text: as §1
# [3] = molecular target: human desmoglein 2 (DSG2) (human) (UniProt Q14126); assay: cell-based or functional assay
compound,measurement,setting,value
5′-CCAGTGTTCTACCTAAATA-3′ [DSG2-shRNA62],knockdown of DSG2 protein,DSG2,Efficient knockdown
5′-TGGATGTCAATGACAATAT-3′ [DSG2-shRNA60],knockdown of DSG2 protein,DSG2,Efficient knockdown
CC(C)C[C@H](NC(=O)[C@H](Cc1ccccc1)NC(=O)c1cnccn1)B(O)O [Bortezomib],sensitivity to Bortezomib (cell viability) of KMS-11 cells with stable DSG2 knockdown,[1],even further increased sensitivity
same,viability of KMS-11 human multiple myeloma cells,[2],reduced
human desmoglein 2 (DSG2) (from UniProt Q14126 50-1118),"reduction in adhesion of KMS-11 cells with DSG2 knockdown (shRNA construct A) to a BMEC-DSG2 monolayer, compared to the NT control cell line",[3],28.1%
same,"reduction in adhesion of KMS-11 cells with DSG2 knockdown (shRNA construct C) to a BMEC-DSG2 monolayer, compared to the NT control cell line",[3],35.6%
